Assay results from patent US20110207800A1, “HIV-Dependent expression constructs and uses therefore” (priority 2008, published 2011).

How the values were obtained:
AnlO = format: cell-based, Bacillus anthracis
α-hemolysin = α-hemolysin (Staphylococcus aureus, UniProt P09616); format: cell-based
[1] = test system: HIV-1-positive J1.1 cell line; format: cell-based
healthy macrophages = format: cell-based, human

Sequence of α-hemolysin (P09616 27-319 limits assumed): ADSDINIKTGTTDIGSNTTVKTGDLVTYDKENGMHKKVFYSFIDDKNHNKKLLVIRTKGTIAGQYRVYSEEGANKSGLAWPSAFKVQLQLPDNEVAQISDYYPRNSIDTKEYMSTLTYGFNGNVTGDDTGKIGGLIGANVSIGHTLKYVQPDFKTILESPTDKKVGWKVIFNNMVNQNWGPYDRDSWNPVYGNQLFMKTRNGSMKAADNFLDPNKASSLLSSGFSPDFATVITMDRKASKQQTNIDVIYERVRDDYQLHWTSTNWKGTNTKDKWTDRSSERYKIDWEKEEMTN

Row | Molecule | change of GFP-positive cell population (inhibition of cytolysis by anlO) (AnlO) | number of GFP positive cells (α-hemolysin) | infectivity of virus generated in the presence of the compound [1] | cytolysis, share of the cells (healthy macrophages) [%] | time to detection of cytolysis (healthy macrophages; 500 ng/ml) [days]
1 | 6-boc orthinine amide-β-cyclodextrin [6-BOCD] | doubling | did not increase | no difference in infectivity | – | –
2 | COc1ccc(C[C@H](N)C(=O)N[C@H]2[C@@H](O)[C@H](n3cnc4c(N(C)C)ncnc43)O[C@@H]2CO)cc1 [puromycin] | – | – | – | 25 | ≤ 2
